Where a chain is given by its changes, count along the chain named. pIC50, pKi: −log10 of the molar value. Where “and” joins values, the source holds several entries; their conditions need not be identical. Identical values can stand only once.
What was measured:
[1] = system: prostate extract and steroid 5α-reductase 1; assay: finasteride inhibition of mixed aliquots of prostate extract and steroid 5α-reductase 1 extract; assay type: biochemical, human; conditions: aliquots with equivalent 5α-reductase activity mixed
[2] = biological target: T1, rat steroid 5α-reductase (Rattus norvegicus, UniProt P24008); set-up: the open reading frame would encode a hydrophobic protein of 255 amino acids; expressed in transfected cells; host or cells: simian COS-M6 cells, pCMV4 vector; conditions: simian COS cells; Andersson & Russell, 1990; cited from earlier work
T1 sequence (P24008 5-259): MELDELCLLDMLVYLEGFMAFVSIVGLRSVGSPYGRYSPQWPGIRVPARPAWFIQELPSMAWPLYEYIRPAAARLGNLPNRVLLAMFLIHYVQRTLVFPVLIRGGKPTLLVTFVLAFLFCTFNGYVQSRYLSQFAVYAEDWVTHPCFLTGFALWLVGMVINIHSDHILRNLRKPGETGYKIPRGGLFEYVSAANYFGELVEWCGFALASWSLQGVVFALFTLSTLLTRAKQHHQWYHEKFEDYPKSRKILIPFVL

[3] = biological target: T2, human 5α-reductase 2 (Homo sapiens, UniProt P31213, L89V); assay: finasteride inhibition of 5α-reductase 2 expressed in human embryonic kidney 293 cells (FIG. 15B); assay type: biochemical; conditions: 5α-reductase 2, 293 cells
T2 construct: predicted to be a hydrophobic polypeptide of 254 amino acids; expressed in transfected cells; host or cells: human embryonic kidney 293 cells, pCMV expression vector
T2 sequence (P31213 1-254 L89V): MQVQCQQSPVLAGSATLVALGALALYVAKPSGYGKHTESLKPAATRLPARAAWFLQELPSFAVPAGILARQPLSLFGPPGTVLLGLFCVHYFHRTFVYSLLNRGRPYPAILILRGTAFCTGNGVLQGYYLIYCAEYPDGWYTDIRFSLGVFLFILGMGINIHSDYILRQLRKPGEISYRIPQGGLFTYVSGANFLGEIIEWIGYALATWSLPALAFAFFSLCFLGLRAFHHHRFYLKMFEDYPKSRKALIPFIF
Procedure: (§1) FIGS. 15A-15B. Characterization of expressed human 5α-reductase isozymes with regard to pH optima and finasteride inhibition. Expression plasmids containing the 5α-reductase 1 or 2 cDNAs (FIGS. 7 and 13, respectively) were transfected into human embryonic kidney 293 cells. […] Reductase enzyme activity obtained in extracts of transfected human embryonic kidney 293 cells in the absence of inhibitor was defined as 100%. In both panels, conversion into dihydrotestosterone was determined, after 10 minute incubations, by thin layer chromatography. Protein concentrations in cell extracts were measured as in Lowry, 1951.
(§2) Steroid 5α-Reductase Assay. […] Termination, organic extraction and TLC were performed as described in Example 1, using a chloroform-ethyl acetate (3:1, v/v) mobile phase in the TLC.
(§3) The properties of the two human steroid 5α-reductase isozymes were also compared directly, following expression in human embryonic kidney 293 cells.

[4] = biological target: T3, human 5α-reductase 2 (Homo sapiens, UniProt P31213); assay: as above; assay type: biochemical
T3 construct: predicted to be a hydrophobic polypeptide of 254 amino acids; expressed in transfected cells; host or cells: human embryonic kidney 293 cells, pCMV expression vector
T3 sequence (P31213 1-254 L89V): T2 sequence (P31213 1-254 L89V)
Procedure: as §1, §2, §3

[5] = biological target: T4, human prostate 5α-reductase (prostate extract) (Homo sapiens, UniProt P31213); assay: finasteride inhibition of 5α-reductase in human prostate extract; assay type: biochemical
T4 construct: Prostate tissue was obtained from subjects undergoing surgical treatment for benign prostatic hyperplasia; from tissue; host or cells: human prostate (benign prostatic hyperplasia), membrane extract
T4 sequence (P31213 1-254): T2 sequence (P31213 1-254 L89V) with V89L

[6] = system: major human prostate 5α-reductase enzyme; conditions: Liang et al., 1985; cited from earlier work
[7] = biological target: T5, human 5α-reductase 1 (Homo sapiens, UniProt P18405); assay: finasteride inhibition of 5α-reductase 1 expressed in human embryonic kidney 293 cells (FIG. 15B); assay type: biochemical
T5 construct: Human 5α-reductase 1 is 259 residues long; expressed in transfected cells; host or cells: human embryonic kidney 293 cells
T5 sequence (P18405 1-259): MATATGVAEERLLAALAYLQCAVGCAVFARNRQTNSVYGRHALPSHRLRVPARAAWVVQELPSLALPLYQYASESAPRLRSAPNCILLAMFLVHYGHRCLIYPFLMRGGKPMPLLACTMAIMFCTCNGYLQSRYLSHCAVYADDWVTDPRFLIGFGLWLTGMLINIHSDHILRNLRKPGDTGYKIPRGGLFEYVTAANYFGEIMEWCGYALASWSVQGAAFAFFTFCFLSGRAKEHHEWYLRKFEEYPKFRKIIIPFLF
Procedure: as §1, §2, §3

[8] = biological target: T6, human steroid 5α-reductase 1 (Homo sapiens, UniProt P18405); assay: finasteride inhibition of steroid 5α-reductase 1 expressed in COS cells (Example 6); assay type: biochemical; set-up: Human 5α-reductase 1 is 259 residues long; expressed in transfected cells; host or cells: simian COS-M6 cells, pCMV4 vector
T6 sequence (P18405 1-259): T5 sequence (P18405 1-259)

[9] = biological target: T6, human steroid 5α-reductase 1; assay: steroid 5α-reductase activity/inhibition in vitro, homogenates of COS cells expressing human steroid 5α-reductase 1 cDNA (Table III); conditions: apparent Ki, human enzyme; two [14C]testosterone concentrations; Dixon plots
Excerpt: (§4) Expression Vector Construction. A rat steroid 5α-reductase cDNA corresponding to nucleotides 1-1962 (see Example 1) was ligated into the pCMV4 expression vector (Andersson et al., 1989b). A human cDNA corresponding to nucleotides 1 to 842 of FIG. 7 was initially ligated into pCMV4. […] After amplification, the product was ligated into pCMV4.
(§5) Expression of Steroid 5α-Reductase 1 cDNAs in COS Cells. Simian COS-M6 cells were transfected as described by Andersson et al. (1989b). The assay of steroid 5α-reductase activity in intact cells was carried out as described in Example 1 except that [^14 C]-labeled steroid dissolved in ethanol were added to the transfected cell medium and subsequent organic extractions were carried out with dichloromethane. TLC and liquid scintillation counting were performed as described in Example 1.
(§6) To assay steroid 5α-reductase activity in vitro, cells were harvested 48 hours after transfection, washed once with phosphate buffered saline and either frozen in liquid N2 or homogenized directly with a Polytron in 10 mM potassium phosphate (pH 7.4), 150 mM KCl and 1 mM EDTA, at a protein concentration of 2 mg/ml. A typical assay contained 10 to 50 μg of cell homogenate protein in 0.5 ml of 0.1M potassium phosphate buffer (pH 6.6, rat enzyme; pH 7.0, human enzyme). Steroids were added in 5 μl ethanol, and the reaction was initiated by the addition of NADPH to a final concentration of 2-5 mM. Incubations were carried out for 10 min at 37° C. and terminated by the addition of 5 ml dichloromethane. Organic execrations and thin-layer chromatography analysis were as described above.
(§7) The apparent Km and Vmax values in this system were determined in vitro with five different steroid substrates (Table III).
(§8) The apparent Ki values were then determined for 4-aza-steroid (4-MA and MK-906) inhibition of 5α-reductases expressed in COS cells. […] The data obtained were analyzed using Dixon plots to determine the type of inhibition and the apparent Ki value (Dixon et al., 1979).
(§9) COS call transfaction, cell homogonate preparation, and enzyme assay were
(§10) carried out as described in Materials and Methods. Each Km value
(§11) represents the average of at least two experiments carried out on
(§12) different days using cell lysates prepared from different transfections.

[10] = biological target: T1, rat steroid 5α-reductase; assay: steroid 5α-reductase assay in intact transfected COS cells, rat cDNA; assay type: cell-based; set-up: the open reading frame would encode a hydrophobic protein of 255 amino acids; expressed in transfected cells; host or cells: simian COS-M6 cells, pCMV4 vector; conditions: rat enzyme expressed in COS cells; 37° C., 2 hr
Excerpt: as §4, §5
COS cells were transiently transfected with expression vectors harboring the rat or human steroid 5α-reductase 1 cDNAs, or with the pCMV4 vector alone.
IC50 values for MK-906 and 4-MA inhibition of 5α-reductases expressed in COS cells were also determined. […] See Example 6 and FIG. 15, for further analysis of 4-aza-steroid inhibition.

[11] = biological target: T1, rat steroid 5α-reductase; assay: steroid 5α-reductase activity/inhibition in vitro, homogenates of COS cells expressing rat cDNA (Table III); conditions: apparent Ki, rat enzyme; two [14C]testosterone concentrations; Dixon plots
Excerpt: as §4, §5, §6, §7, §8, §9, §10, §11, §12

[12] = system: steroid 5α-reductase; conditions: Liang et al., 1985; cited from earlier work

inhibition curve of mixed extracts [1]: biphasic
pKi [3]: ~8.30
pIC50 [4]: ~7.52
pIC50 [5]: 8.00
pIC50 [7]: ~6.05
pKi ([7]; 5α-reductase 1, 293 cells): ~6.64
pIC50 [8]: 5.00
pKi [9]: 6.21 to 6.47 and 6.47 and 6.42 and 6.21
IC50 inhibition, relative potency of MK-906 and 4-MA [10]: equipotent
pKi [11]: 8.30 to 8.52 and 8.52 and 8.40 and 8.30
SMILES: CC(C)(C)NC(=O)[C@H]1CC[C@H]2[C@@H]3CC[C@H]4NC(=O)C=C[C@]4(C)[C@H]3CC[C@]12C [MK-906, 17β-N-t-butylcarbamoyl-4-aza-5α-androst-1-en-3-one]
inhibition of rat steroid 5α-reductase [2]: inhibited
type of inhibition [6]: competitive inhibitor
type of inhibition [12]: competitive inhibitors

Source: US5679521A, “Steroid 5A-reductases” (priority 1995, dated 1997)
